Results published in patent US12077503B2, “Substituted cyclic amides and their use as herbicides” (FMC CORPORATION, priority 2015, dated 2024).

Tests used:
Format in all cases: in vivo
[1] = tested on: wheat (winter wheat, Triticum aestivum); assay: Test C preemergence; conditions: scale 0 to 100, 0 no effect, 100 complete control
Summary of the method: (§1)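 Preemergence: sow in loam-sand soil and treat. Postemergence: grow in peat-moss/vermiculite medium to 2–18 cm (1–4 leaves) and spray. Compound in non-phytotoxic solvent with surfactant; keep in greenhouse 13–15 d; score visually against controls, 0 (none) to 100 (full control).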

soybean (Glycine max) = assay: Test C preemergence; conditions: scale 0 to 100, 0 no effect, 100 complete control
Summary of the method: as §1

[2] = tested on: blackgrass (Alopecurus myosuroides); assay: Test C preemergence; conditions: scale 0 to 100, 0 no effect, 100 complete control
Summary of the method: as §1

corn (Zea mays) = assay: Test C preemergence; conditions: scale 0 to 100, 0 no effect, 100 complete control
Summary of the method: as §1

[3] = tested on: barnyardgrass (Echinochloa crus-galli); assay: Test C preemergence; conditions: scale 0 to 100, 0 no effect, 100 complete control
Summary of the method: as §1

[4] = tested on: morningglory (Ipomoea coccinea); assay: Test C preemergence; conditions: scale 0 to 100, 0 no effect, 100 complete control
Summary of the method: as §1

[5] = tested on: velvetleaf (Abutilon theophrasti); assay: Test C preemergence; conditions: scale 0 to 100, 0 no effect, 100 complete control
Summary of the method: as §1

[6] = tested on: ryegrass, Italian (Italian ryegrass, Lolium multiflorum); assay: Test C preemergence; conditions: scale 0 to 100, 0 no effect, 100 complete control
Summary of the method: as §1

[7] = tested on: oilseed rape (Brassica napus); assay: Test C preemergence; conditions: scale 0 to 100, 0 no effect, 100 complete control
Summary of the method: as §1

[8] = tested on: pigweed (Amaranthus retroflexus); assay: Test C preemergence; conditions: scale 0 to 100, 0 no effect, 100 complete control
Summary of the method: as §1

[9] = tested on: ragweed (common ragweed, Ambrosia elatior); assay: Test C preemergence; conditions: scale 0 to 100, 0 no effect, 100 complete control
Summary of the method: as §1

[10] = tested on: crabgrass, large (large crabgrass, Digitaria sanguinalis); assay: Test C preemergence; conditions: scale 0 to 100, 0 no effect, 100 complete control
Summary of the method: as §1

[11] = tested on: waterhemp (common waterhemp, Amaranthus rudis); assay: Test C preemergence; conditions: scale 0 to 100, 0 no effect, 100 complete control
Summary of the method: as §1

[12] = tested on: Galium (catchweed bedstraw, Galium aparine); assay: Test C preemergence; conditions: scale 0 to 100, 0 no effect, 100 complete control
Summary of the method: as §1

[13] = tested on: johnsongrass (Sorghum halepense); assay: Test C preemergence; conditions: scale 0 to 100, 0 no effect, 100 complete control
Summary of the method: as §1

[14] = tested on: nutsedge, yellow (yellow nutsedge, Cyperus esculentus); assay: Test C preemergence; conditions: scale 0 to 100, 0 no effect, 100 complete control
Summary of the method: as §1

[15] = tested on: giant foxtail (Setaria faberi); assay: Test G Pre-Emergence Protocol; conditions: evaluated after 13 days
Description: Seeds of corn (Zea mays), giant foxtail (Setaria faberi), barnyardgrass (Echinochloa crus-galli), ivy-leaved morning glory (Ipomoea hederacea), redroot pigweed (Amaranthus retroflexus) and velvetleaf (Abutilon theophrasti) were sown in standard soil in pots. After cultivation for one day under controlled conditions in a glasshouse (at 24/16° C., day/night; 14 hours light; 65% humidity), the plants were sprayed with an aqueous spray solution derived from the formulation of the technical active ingredient in acetone/water (50:50) solution containing 0.5% Tween 20 (polyoxyethylene sorbitan monolaurate, CAS RN 9005-64-5) to give a final dose of 15.625, 62.5 or 250 g/ha of test compound.
The test plants were then grown on under controlled conditions in a glasshouse (at 24/16° C., day/night; 14 hours light; 65% humidity) and watered twice daily. After 13 days the test was evaluated (100=total damage to plant; 0=no damage to plant). A dash (-) means no test result.

Structure (SMILES): CN1CC(c2cccc(OC(F)(F)C(F)F)c2)C(C(=O)Nc2ccc(F)c(F)c2F)C1=O (stereo not shown) [Compound 429]
- Plant response rating, Wheat ([1]; 62 g ai/ha): 60
- Plant response rating, Wheat ([1]; 125 g ai/ha): 70
- Plant response rating, Wheat ([1]; 250 g ai/ha): 60
- Plant response rating, Soybean (soybean (Glycine max); 125 g ai/ha): 0
- Plant response rating, Soybean (soybean (Glycine max); 250 g ai/ha): 10
- Plant response rating, Blackgrass ([2]; 31 g ai/ha): 70
- Plant response rating, Blackgrass ([2]; 62 g ai/ha): 90
- Plant response rating, Blackgrass ([2]; 125 g ai/ha): 90
- Plant response rating, Blackgrass ([2]; 250 g ai/ha): 95
- Plant response rating, Corn (corn (Zea mays); 31 g ai/ha): 0
- Plant response rating, Corn (corn (Zea mays); 62 g ai/ha): 40
- Plant response rating, Corn (corn (Zea mays); 125 g ai/ha): 65
- Plant response rating, Corn (corn (Zea mays); 250 g ai/ha): 90
- Plant response rating, Barnyardgrass ([3]; 31 g ai/ha): 85
- Plant response rating, Barnyardgrass ([3]; 62 g ai/ha): 95
- Plant response rating, Barnyardgrass ([3]; 125 g ai/ha): 95
- Plant response rating, Barnyardgrass ([3]; 250 g ai/ha): 98
- Plant response rating, Morningglory ([4]; 31 g ai/ha): 35
- Plant response rating, Morningglory ([4]; 62 g ai/ha): 30
- Plant response rating, Morningglory ([4]; 125 g ai/ha): 20
- Plant response rating, Morningglory ([4]; 250 g ai/ha): 60
- Plant response rating, Velvetleaf ([5]; 62 g ai/ha): 40
- Plant response rating, Velvetleaf ([5]; 125 g ai/ha): 30
- Plant response rating, Velvetleaf ([5]; 250 g ai/ha): 45
- Plant response rating, Ryegrass, Italian ([6]; 62 g ai/ha): 85
- Plant response rating, Ryegrass, Italian ([6]; 125 g ai/ha): 85
- Plant response rating, Ryegrass, Italian ([6]; 250 g ai/ha): 65
- Plant response rating, Oilseed Rape ([7]; 31 g ai/ha): 80
- Plant response rating, Oilseed Rape ([7]; 62 g ai/ha): 80
- Plant response rating, Oilseed Rape ([7]; 125 g ai/ha): 90
- Plant response rating, Oilseed Rape ([7]; 250 g ai/ha): 90
- Plant response rating, Pigweed ([8]; 31 g ai/ha): 75
- Plant response rating, Pigweed ([8]; 62 g ai/ha): 85
- Plant response rating, Pigweed ([8]; 125 g ai/ha): 90
- Plant response rating, Pigweed ([8]; 250 g ai/ha): 100
- Plant response rating, Ragweed ([9]; 31 g ai/ha): 0
- Plant response rating, Ragweed ([9]; 62 g ai/ha): 40
- Plant response rating, Ragweed ([9]; 125 g ai/ha): 75
- Plant response rating, Ragweed ([9]; 250 g ai/ha): 75
- Plant response rating, Crabgrass, Large ([10]; 31 g ai/ha): 95
- Plant response rating, Crabgrass, Large ([10]; 62 g ai/ha): 98
- Plant response rating, Crabgrass, Large ([10]; 125 g ai/ha): 98
- Plant response rating, Crabgrass, Large ([10]; 250 g ai/ha): 98
- Plant response rating, Waterhemp ([11]; 62 g ai/ha): 85
- Plant response rating, Waterhemp ([11]; 125 g ai/ha): 90
- Plant response rating, Waterhemp ([11]; 250 g ai/ha): 90
- Plant response rating, Galium ([12]; 31 g ai/ha): 100
- Plant response rating, Galium ([12]; 62 g ai/ha): 100
- Plant response rating, Galium ([12]; 125 g ai/ha): 100
- Plant response rating, Galium ([12]; 250 g ai/ha): 100
- Plant response rating, Johnsongrass ([13]; 31 g ai/ha): 75
- Plant response rating, Johnsongrass ([13]; 62 g ai/ha): 95
- Plant response rating, Johnsongrass ([13]; 125 g ai/ha): 95
- Plant response rating, Johnsongrass ([13]; 250 g ai/ha): 90
- Plant response rating, Nutsedge, Yellow ([14]; 31 g ai/ha): 0
- Plant response rating, Nutsedge, Yellow ([14]; 62 g ai/ha): 0
- Plant response rating, Nutsedge, Yellow ([14]; 125 g ai/ha): 0
- Plant response rating, Nutsedge, Yellow ([14]; 250 g ai/ha): 0

Structure (SMILES): CN1CC(c2cccc(OC(F)(F)C(F)F)c2)C(C(=O)Nc2ccccc2C(F)(F)F)C1=O (stereo not shown) [Compound 431]
- Plant response rating, Wheat ([1]; 62 g ai/ha): 5
- Plant response rating, Wheat ([1]; 125 g ai/ha): 70
- Plant response rating, Wheat ([1]; 250 g ai/ha): 90
- Plant response rating, Soybean (soybean (Glycine max); 125 g ai/ha): 0
- Plant response rating, Blackgrass ([2]; 31 g ai/ha): 60
- Plant response rating, Blackgrass ([2]; 62 g ai/ha): 85
- Plant response rating, Blackgrass ([2]; 125 g ai/ha): 90
- Plant response rating, Blackgrass ([2]; 250 g ai/ha): 98
- Plant response rating, Corn (corn (Zea mays); 31 g ai/ha): 0
- Plant response rating, Corn (corn (Zea mays); 62 g ai/ha): 35
- Plant response rating, Corn (corn (Zea mays); 125 g ai/ha): 50
- Plant response rating, Corn (corn (Zea mays); 250 g ai/ha): 65
- Plant response rating, Barnyardgrass ([3]; 31 g ai/ha): 90
- Plant response rating, Barnyardgrass ([3]; 62 g ai/ha): 95
- Plant response rating, Barnyardgrass ([3]; 125 g ai/ha): 95
- Plant response rating, Barnyardgrass ([3]; 250 g ai/ha): 98
- Plant response rating, Morningglory ([4]; 31 g ai/ha): 0
- Plant response rating, Morningglory ([4]; 62 g ai/ha): 10
- Plant response rating, Morningglory ([4]; 125 g ai/ha): 10
- Plant response rating, Morningglory ([4]; 250 g ai/ha): 10
- Plant response rating, Velvetleaf ([5]; 62 g ai/ha): 25
- Plant response rating, Velvetleaf ([5]; 125 g ai/ha): 40
- Plant response rating, Velvetleaf ([5]; 250 g ai/ha): 30
- Plant response rating, Ryegrass, Italian ([6]; 62 g ai/ha): 10
- Plant response rating, Ryegrass, Italian ([6]; 125 g ai/ha): 15
- Plant response rating, Ryegrass, Italian ([6]; 250 g ai/ha): 70
- Plant response rating, Oilseed Rape ([7]; 31 g ai/ha): 10
- Plant response rating, Oilseed Rape ([7]; 62 g ai/ha): 60
- Plant response rating, Oilseed Rape ([7]; 125 g ai/ha): 85
- Plant response rating, Oilseed Rape ([7]; 250 g ai/ha): 90
- Plant response rating, Pigweed ([8]; 31 g ai/ha): 40
- Plant response rating, Pigweed ([8]; 62 g ai/ha): 60
- Plant response rating, Pigweed ([8]; 125 g ai/ha): 75
- Plant response rating, Pigweed ([8]; 250 g ai/ha): 85
- Plant response rating, Ragweed ([9]; 31 g ai/ha): 50
- Plant response rating, Ragweed ([9]; 62 g ai/ha): 40
- Plant response rating, Ragweed ([9]; 125 g ai/ha): 40
- Plant response rating, Ragweed ([9]; 250 g ai/ha): 60
- Plant response rating, Crabgrass, Large ([10]; 31 g ai/ha): 98
- Plant response rating, Crabgrass, Large ([10]; 62 g ai/ha): 100
- Plant response rating, Crabgrass, Large ([10]; 125 g ai/ha): 100
- Plant response rating, Crabgrass, Large ([10]; 250 g ai/ha): 100
- Plant response rating, Waterhemp ([11]; 62 g ai/ha): 75
- Plant response rating, Waterhemp ([11]; 125 g ai/ha): 85
- Plant response rating, Waterhemp ([11]; 250 g ai/ha): 90
- Plant response rating, Galium ([12]; 31 g ai/ha): 95
- Plant response rating, Galium ([12]; 62 g ai/ha): 90
- Plant response rating, Galium ([12]; 125 g ai/ha): 100
- Plant response rating, Galium ([12]; 250 g ai/ha): 90
- Plant response rating, Johnsongrass ([13]; 31 g ai/ha): 70
- Plant response rating, Johnsongrass ([13]; 62 g ai/ha): 75
- Plant response rating, Johnsongrass ([13]; 125 g ai/ha): 85
- Plant response rating, Johnsongrass ([13]; 250 g ai/ha): 90
- Plant response rating, Nutsedge, Yellow ([14]; 31 g ai/ha): 0
- Plant response rating, Nutsedge, Yellow ([14]; 62 g ai/ha): 0
- Plant response rating, Nutsedge, Yellow ([14]; 125 g ai/ha): 0
- Plant response rating, Nutsedge, Yellow ([14]; 250 g ai/ha): 0

Structure (SMILES): CN1C[C@H](c2cccc(C(F)(F)F)c2)[C@@H](C(=O)Nc2cccnc2F)C1=O [Compound 1397]
- Foxtail, Giant damage rating (100=total damage to plant; 0=no damage to plant) ([15]; 15.625 g ai/ha): 90
- Foxtail, Giant damage rating (100=total damage to plant; 0=no damage to plant) ([15]; 250 g ai/ha): 90
- pest or weed control at 62.5 g/ha ([15]; Setaria faberi, pre-emergence, 312 h, 62.5 g ai/ha, 100=total damage to plant, 0=no damage to plant, read-out: plant damage rating, Foxtail, Giant): 90%

Structure (SMILES): CN1C[C@H](c2ccc(C(F)(F)F)cc2)[C@@H](C(=O)Nc2cccc(F)n2)C1=O [Compound 1400]
- Foxtail, Giant damage rating (100=total damage to plant; 0=no damage to plant) ([15]; 15.625 g ai/ha): 60
- plant damage rating, Foxtail, Giant ([15]; 62.5 g ai/ha, 100=total damage to plant, 0=no damage to plant): 90
- Foxtail, Giant damage rating (100=total damage to plant; 0=no damage to plant) ([15]; 250 g ai/ha): 90
